Where a name gives a salt, the structure may show the parent alone.
What follows are compounds tested on HBV rcDNA in HepDE19 cells (assay: HepDE19 assay with bDNA quantitation of HBV rcDNA). Details: HepDE19 cells, inhibition of rcDNA formation, 7 day incubation, top concentration 25 μM; read-out: DE-19 bDNA EC50.
Assay type: cell-based, hepatitis B virus (HBV)
Description: HepDE19 Assay with bDNA Quantitation of HBV rcDNA:
HepDE19 cell culture system is a HepG2 (human hepatocarcinoma) derived cell line that supports HBV DNA replication and cccDNA formation in a tetracycline (Tet)-regulated manner and produces HBV rcDNA and a detectable reporter molecule dependent on the production and maintenance of cccDNA (Guo, et al., 2007, J. Virol. 81:12472-12484).
HepDE19 (50,000 cells/well) were plated in 96-well collagen-coated tissue-culture treated microtiter plates in DMEM/F12 medium supplemented with 10% fetal bovine serum, 1% penicillin-streptomycin and 1 μg/mL tetracycline and incubated in a humidified incubator at 37° C. and 5% CO2 overnight. Next day, the cells were switched to fresh medium without tetracycline and incubated for 4 hours at 37° C. and 5% CO2. The cells were treated with fresh Tet-free medium with compounds at concentrations starting at 25 μM and a serial, ½ log, 8-point, titration series in duplicate. The final DMSO concentration in the assay was 0.5%. The plates were incubated for 7 days in a humidified incubator at 37° C. and 5% CO2. Following a 7 day-incubation, the level of rcDNA present in the inhibitor-treated wells was measured using a Quantigene 2.0 bDNA assay kit (Affymetrix, Santa Clara, Calif.) with HBV specific custom probe set and manufacturers instructions. Concurrently, the effect of compounds on cell viability was assessed using replicate plates, plated at a density of 5,000 cells/well and incubated for 4 days, to determine the ATP content as a measure of cell viability using the cell-titer glo reagent (CTG; Promega Corporation, Madison, Wis.) as per manufacturer's instructions. The plates were read using a Victor luminescence plate reader (PerkinElmer Model 1420 Multilabel counter) and the relative luminescence units (RLU) data generated from each well was calculated as % inhibition of the untreated control wells and analyzed using XL-Fit module in Microsoft Excel to determine EC50 and EC90 (bDNA) and CC50 (CTG) values using a 4-parameter curve fitting algorithm.
Representative compounds of the invention were tested for their abilities to inhibit formation of relaxed circular DNA (rcDNA) in a HepDE19 assay, as described elsewhere herein.

Point of comparison: `O=C(Nc1ccc(F)c(Cl)c1)c1ccc(F)c2c1OCC2NS(=O)(=O)C1CC1` (single isomer, unassigned) [Compound 208, N-(3-chloro-4-fluorophenyl)-3-(cyclopropanesulfonamido)-4-fluoro-2,3-dihydrobenzofuran-7-carboxamide], EC50 0.11 µM. Against it:
- O=C(Nc1ccc(F)c(Cl)c1)c1ccc(F)c2c1OCC2NS(=O)(=O)C1CC1 (single isomer, unassigned) [Compound 207, N-(3-chloro-4-fluorophenyl)-3-(cyclopropanesulfonamido)-4-fluoro-2,3-dihydrobenzofuran-7-carboxamide] — 130-fold higher, 14 µM
- CNC(=O)NC1(C)CCc2c(C(=O)Nc3ccc(F)c(Cl)c3)ccc(F)c21 (single isomer, unassigned) [Compound 223, N-(3-chloro-4-fluorophenyl)-7-fluoro-1-methyl-1-(3-methylureido)-2,3-dihydro-1H-indene-4-carboxamide] — 41-fold higher, 4.52 µM
- O=C1NC(=O)C2(CCc3c(C(=O)Nc4ccc(F)c(Cl)c4)ccc(F)c32)N1 (single isomer, unassigned) [Compound 257, N-(3-chloro-4-fluoro-phenyl)-7′-fluoro-2,5-dioxo-spiro[imidazolidine-4,1′-indane]-4′-carboxamide] — higher, > 25 µM
- O=C1NC(=O)C2(CCc3c(C(=O)Nc4ccc(F)c(Cl)c4)ccc(F)c32)N1 (single isomer, unassigned) [Compound 258, N-(3-chloro-4-fluoro-phenyl)-7′-fluoro-2,5-dioxo-spiro [imidazolidine-4,1′-indane]-4′-carboxamide] — 5.2-fold higher, 0.57 µM
- CN1C(=O)NC2(CCc3c(C(=O)Nc4ccc(F)c(Cl)c4)ccc(F)c32)C1=O (single isomer, unassigned) [Compound 261, N-(3-chloro-4-fluoro-phenyl)-7′-fluoro-1-methyl-2,5-dioxo-spiro [imidazolidine-4,1′-indane]-4′-carboxamide] — 25-fold higher, 2.7 µM
- CN1C(=O)NC2(CCc3c(C(=O)Nc4ccc(F)c(Cl)c4)ccc(F)c32)C1=O (single isomer, unassigned) [Compound 262, N-(3-chloro-4-fluoro-phenyl)-7′-fluoro-1-methyl-2,5-dioxo-spiro [imidazolidine-4,1′-indane]-4′-carboxamide] — 130-fold higher, 14 µM

Same assay, conditions: Hepatitis B virus, HepDE19, 168 h, HepDE19 cells, inhibition of rcDNA formation, 7 day incubation, top concentration 25 μM; read-out: DE-19 bDNA EC50

Point of comparison: `CNC(=O)NC1c2c(F)ccc(C(=O)Nc3ccc(F)c(Cl)c3)c2CC1(F)F` (single isomer, unassigned) [Compound 211, N-(3-chloro-4-fluorophenyl)-2,2,7-trifluoro-1-(3-methylureido)-2,3-dihydro-1H-indene-4-carboxamide], EC50 6.9 µM. Against it:
- O=C(Nc1ccc(F)c(Cl)c1)c1cncc2c1CCC2NS(=O)(=O)C1CC1 (racemic) [Compound 268, N-(3-Chloro-4-fluorophenyl)-7-(cyclopropanesulfonamido)-6,7-dihydro-5H-cyclopenta[c]pyridine-4-carboxamide] — within 1.5-fold, 8.2 µM
- O=C(NC1CSc2c(C(=O)Nc3ccc(F)c(F)c3)cccc21)OCc1ccccn1 (single isomer, unassigned) [Compound 33, O-Pyridin-2-ylmethyl, N-(7-((3,4-difluorophenyl)carbamoyl)-2,3-dihydrobenzo[b]thiophen-3-yl) carbamate hydrochloride] — 6.3-fold lower, 1.1 µM
- Cc1cc(NC(=O)c2ccc(F)c3c2OCC3NC(=O)OCc2ccccn2)ccc1F (single isomer, unassigned) [Compound 206, O-Pyridin-2-ylmethyl, N-(4-fluoro-7-((4-fluoro-3-methylphenyl)carbamoyl)-2,3-dihydrobenzofuran-3-yl)carbamate] — 17-fold lower, 0.41 µM
- CNC(=O)NC1(C)CCc2c(C(=O)Nc3ccc(F)c(Cl)c3)ccc(F)c21 (single isomer, unassigned) [Compound 215, N-(3-Chloro-4-fluorophenyl)-7-fluoro-1-methyl-1-(3-methylureido)-2,3-dihydro-1H-indene-4-carboxamide] — 1.8-fold lower, 3.8 µM

Same assay, conditions: Hepatitis B virus, HepDE19, 168 h, read-out: DE-19 bDNA EC50 (μM), HepDE19 cells, inhibition of rcDNA formation, 7 day incubation, top concentration 25 μM

Work on `COC(=O)NC1CSc2c(C(=O)Nc3ccc(F)c(Cl)c3)cccc21` (single isomer, unassigned) [Compound 38, O-Methyl, N-(7-((3-chloro-4-fluorophenyl)carbamoyl)-2,3-dihydrobenzo[b]thiophen-3-yl) carbamate] yielded an EC50 greater than 25 µM.

Same assay, conditions: read-out: DE-19 bDNA EC50; HepDE19 cells, inhibition of rcDNA formation, 7 day incubation, top concentration 25 μM

Point of comparison: `O=C(NC1COc2c(C(=O)Nc3ccc(F)c(Cl)c3)ccc(F)c21)OCc1ccccn1` (single isomer, unassigned) [Compound 191, O-Pyridin-2-ylmethyl, N-(7-((3-chloro-4-fluorophenyl)carbamoyl)-4-fluoro-2,3-dihydrobenzofuran-3-yl)carbamate], EC50 18 µM. Against it:
- CNC(=O)NC1COc2c(C(=O)Nc3ccc(F)c(F)c3)cccc21 (single isomer, unassigned) [Compound 7, N-(3,4-difluorophenyl)-3-(3-methylureido)-2,3-dihydrobenzofuran-7-carboxamide] — 9.5-fold lower, 1.9 µM
- CNC(=O)NC1COc2c(C(=O)Nc3ccc(F)c(F)c3)cccc21 (single isomer, unassigned) [Compound 8, N-(3,4-difluorophenyl)-3-(3-methylureido)-2,3-dihydrobenzofuran-7-carboxamide] — within 1.5-fold, 23 µM
- COC(=O)NC1CSc2c(C(=O)Nc3ccc(F)c(F)c3)cccc21 (single isomer, unassigned) [Compound 30, O-Methyl, N-(7-((3,4-difluorophenyl)carbamoyl)-2,3-dihydrobenzo[b]thiophen-3-yl)carbamate] — 10-fold lower, 1.8 µM
- COC(=O)NC1CSc2c(C(=O)Nc3ccc(F)c(F)c3)cccc21 (single isomer, unassigned) [Compound 31, O-Methyl, N-(7-((3,4-difluorophenyl)carbamoyl)-2,3-dihydrobenzo[b]thiophen-3-yl)carbamate] — higher, > 25 µM
- CNC(=O)NC1c2c(F)ccc(C(=O)Nc3ccc(F)c(Cl)c3)c2CC1(C)C (single isomer, unassigned) [Compound 134, N-(3-Chloro-4-fluorophenyl)-7-fluoro-2,2-dimethyl-1-(3-methylureido)-2,3-dihydro-1H-indene-4-carboxamide] — 50-fold lower, 0.36 µM
- CNC(=O)NC1COc2c(C(=O)Nc3ccc(F)c(Cl)c3)ccc(F)c21 (single isomer, unassigned) [Compound 189, N-(3-Chloro-4-fluorophenyl)-4-fluoro-3-(3-methylureido)-2,3-dihydrobenzofuran-7-carboxamide] — 40-fold lower, 0.45 µM
- CNC(=O)NC1COc2c(C(=O)Nc3ccc(F)c(Cl)c3)ccc(F)c21 (single isomer, unassigned) [Compound 190, N-(3-Chloro-4-fluorophenyl)-4-fluoro-3-(3-methylureido)-2,3-dihydrobenzofuran-7-carboxamide] — higher, > 25 µM
- O=C(NC1COc2c(C(=O)Nc3ccc(F)c(Cl)c3)ccc(F)c21)OCc1ccccn1 (single isomer, unassigned) [Compound 192, O-Pyridin-2-ylmethyl, N-(7-((3-chloro-4-fluorophenyl)carbamoyl)-4-fluoro-2,3-dihydrobenzofuran-3-yl)carbamate] — 58-fold lower, 0.31 µM
- CNC(=O)NC1COc2c(C(=O)Nc3ccc(F)c(C)c3)ccc(F)c21 (single isomer, unassigned) [Compound 203, 4-Fluoro-N-(4-fluoro-3-methylphenyl)-3-(3-methylureido)-2,3-dihydrobenzofuran-7-carboxamide] — higher, > 25 µM
- CNC(=O)NC1COc2c(C(=O)Nc3ccc(F)c(C)c3)ccc(F)c21 (single isomer, unassigned) [Compound 204, 4-Fluoro-N-(4-fluoro-3-methylphenyl)-3-(3-methylureido)-2,3-dihydrobenzofuran-7-carboxamide] — 90-fold lower, 0.2 µM
- CNC(=O)NC1c2c(F)ccc(C(=O)Nc3ccc(F)c(Cl)c3)c2CC1(C)C (single isomer, unassigned) [Compound 249, N-(3-Chloro-4-fluorophenyl)-7-fluoro-2,2-dimethyl-1-(3-methylureido)-2,3-dihydro-1H-indene-4-carboxamide] — within 1.5-fold, 13 µM

Same assay, conditions: read-out: DE-19 bDNA EC50; HepDE19 cells, inhibition of rcDNA formation, 7 day incubation, top concentration 25 μM; hydrochloride

`O=C(NC1CSc2c(C(=O)Nc3ccc(F)c(F)c3)cccc21)OCc1ccccn1` (single isomer, unassigned) [Compound 34, O-Pyridin-2-ylmethyl, N-(7-((3,4-difluorophenyl)carbamoyl)-2,3-dihydrobenzo[b]thiophen-3-yl)carbamate hydrochloride] was tested, and the EC50 was greater than 25 µM.
